# Experimental data published in ChEMBL document CHEMBL1201862, “PubChem BioAssay data set” (2004).
# Calls of active or inactive are those of the source.
# How the values were obtained:
# [1] = inhibitors of PGC1a acetylation in cells, dose response, cell-based, cherry-picked samples (AID 720514); format: functional;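 further: potency may reflect raised or lowered acetylation signal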
# [2] = IOSE-T80 ovarian epithelial cell cytotoxicity, dose response, cytotoxicity control for PAX8 inhibitor project, plate reader, dry powder samples (AID 743045); format: functional, cell-based
# [3] = target: Paired box protein Pax-8 (Homo sapiens, UniProt Q06710); assay: inhibitors of PAX8-driven TPO luciferase reporter, dose response, RMG-I cells, cherry-pick (AID 687027); format: functional, cell-based;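 further: luciferase reporter driven by Pax8 target thyroperoxidase promoter measured by SteadyGlo luminescence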
# [4] = NIH:OVCAR-3 ovarian cancer cell cytotoxicity, dose response, PAX8 inhibitor project, plate reader, dry powder samples (AID 743044); format: functional, cell-based
# [5] = non-specific cell cytotoxicity, dose response, cytotoxicity control for PAX8 inhibitor project, plate reader, dry powder samples (AID 743021); format: functional, cell-based
# [6] = P. falciparum Dd2 growth inhibitors, dose response, SYBR Green, cherry-picked samples (AID 1159567); format: functional, cell-based
# [7] = HepG2 cell cytotoxicity, dose response, cytotoxicity control, cherry-picked samples (AID 1159577); format: functional, cell-based
# [8] = cytotoxicity in OVCAR8 ovarian cancer cells, dose response, PAX8 project, cell-based, plate reader, dry powder samples (AID 743197); format: functional; settings: OVCAR-8
# [9] = target: T1, Oxysterols receptor LXR-beta (Homo sapiens, UniProt P55055); format: functional, cell-based;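 further: agonist activity at LXR measured by a cell-based luminescence readout across a dose range, run as a counterscreen for daf-12 agonists; HEK293 cells with Gal4-LXR fusion and GAL4-driven luciferase reporter; potency for activation of Gal4-LXR reporter so compounds are agonists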
# T1 sequence (P55055 whole entry): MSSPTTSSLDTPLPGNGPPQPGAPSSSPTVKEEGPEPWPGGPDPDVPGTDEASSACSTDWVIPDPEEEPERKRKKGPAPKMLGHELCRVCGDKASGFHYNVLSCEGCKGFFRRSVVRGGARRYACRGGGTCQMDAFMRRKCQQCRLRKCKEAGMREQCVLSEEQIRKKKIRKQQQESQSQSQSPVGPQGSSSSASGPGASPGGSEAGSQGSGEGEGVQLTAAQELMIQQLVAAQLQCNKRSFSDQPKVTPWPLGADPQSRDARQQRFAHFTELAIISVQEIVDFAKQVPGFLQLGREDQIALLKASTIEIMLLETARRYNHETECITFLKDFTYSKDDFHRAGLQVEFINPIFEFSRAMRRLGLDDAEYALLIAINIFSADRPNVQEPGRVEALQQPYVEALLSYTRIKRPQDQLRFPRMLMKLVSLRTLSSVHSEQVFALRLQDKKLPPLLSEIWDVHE
# [10] = cells; settings: HEK293
# [11] = cells; settings: A549
# [12] = tested on: BJ; assay: cytotoxicity toward BJ-TERT fibroblasts, dose response, cell-based, RAS-independent, luminescence (AID 1933); format: functional; settings: Homo sapiens
# [13] = tested on: BJ; assay: cells; format: functional, cell-based; settings: Homo sapiens
# [14] = cytotoxicity toward DRD oncogenic fibroblasts, dose response, cell-based, non-viral oncogenic, luminescence (AID 1934); format: functional; settings: Homo sapiens
# [15] = tested on: BJ; assay: cytotoxicity toward BJ-TERT-LT-ST fibroblasts, dose response, cell-based, RAS-independent, luminescence (AID 1935); format: functional; settings: Homo sapiens;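 further: BJ fibroblasts immortalized with TERT plus LT and ST oncogenes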
# [16] = CellTiter-Glo luminescent dose response of DLD-1 viability loss (AID 1117352); format: functional
# [17] = RKO cell viability reduction, dose response, CellTiter-Glo luminescence (AID 1117322); format: functional
# [18] = SNU-C1 cell viability reduction, dose response, CellTiter-Glo luminescence (AID 1117323); format: functional, cell-based
# [19] = cytotoxicity toward HCT116 cells – cell-based, CellTiter-Glo luminescence, IC50, dose response (AID 1117332); format: functional; settings: HCT-116
# [20] = Concentration-dependent survival of SW480 colon cancer line, luminescence detection with CellTiter-Glo, half-maximal inhibitory concentration (AID 1117338); format: functional
# [21] = cytotoxicity toward Colo320 cells – cell-based, CellTiter-Glo luminescence, IC50, dose response (AID 1117334); format: functional; settings: COLO 320
# [22] = cytotoxicity toward HT-29 cells – cell-based, CellTiter-Glo luminescence, IC50, dose response (AID 1117330); format: functional
# [23] = BHK-21 cell cytotoxicity, cytotoxicity control for flavivirus guanylyltransferase probe project, secondary screen (AID 624078); format: functional
# [24] = cells
# [25] = Luminescence Cell-Based Dose Response HTS to Identify Inhibitors of 5'UTR Stem-Loop Driven Prion Protein mRNA Translation in H4 Neuroglioblastoma Cells. [Related pubchem assays: 1827 (Project Summary), 1813 (Primary HTS)]; format: functional
# [26] = target: Beta-lactamase (Salmonella choleraesuis (strain SC-B67), UniProt Q5J463)
# [27] = inhibitors of SNCA 5'UTR-driven reporter translation, confirmation, H4 neuroglioma cells, luminescence (AID 1988); format: functional, cell-based
# [28] = microbe, parasite or virus in culture; format: functional; settings: Mycobacterium tuberculosis
# [29] = target: Major prion protein (Homo sapiens, UniProt P04156); format: functional, cell-based
# [30] = target: Beta-lactamase (Pseudomonas aeruginosa, UniProt Q79MP6);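 further: biochemical dose-response test of metallo-beta-lactamase enzyme inhibition, read out by epi-absorbance; purified recombinant IMP-1 metallo-beta-lactamase with nitrocefin as substrate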
# [31] = inhibitors of firefly luciferase expression or activity, dose response, H4 neuroglioma cells, luminescence (AID 1990); format: functional, cell-based
# [32] = tested on: INS1; assay: beta cell apoptosis inhibitors, cytokine rescue, dose response, luminescence, retest (AID 449756); format: functional, cell-based; settings: Rattus norvegicus;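 further: cell death triggered by IL-1 beta plus TNF-alpha plus IFN-gamma mixture; protective hits raise ATP signal compared with cytokine alone wells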
# [33] = target: Delta-type opioid receptor (Homo sapiens, UniProt P41143); assay: Late-stage results from the probe development effort to identify antagonists of OPRK1: fluorescence-based cell-based dose response OPRD1 counterscreen.; format: functional
# [34] = target: Mu-type opioid receptor (Homo sapiens, UniProt P35372); assay: Late-stage results from the probe development effort to identify antagonists of OPRK1: luminescence-based cell-based dose response OPRM1 counterscreen.; format: functional
# [35] = target: Potassium channel subfamily K member 9 (Homo sapiens, UniProt Q9NPC2); assay: TASK3 (KCNK9) channel inhibitors, thallium flux, SAR follow-up, selectivity assay for TASK1 inhibitor project, cell-based, FluxOR thallium flux, concentration-response (AID 652211); format: functional;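 further: potency is for inhibitors of the channel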
# [36] = target: Potassium channel subfamily K member 3 (Rattus norvegicus, UniProt O54912); assay: SAR analysis for the identification of selective inhibitors of the two-pore domain potassium channel TASK1(KCNK3):Automated Electrophysiology.; format: functional
# [37] = target: Potassium channel subfamily K member 3 (Homo sapiens, UniProt O14649); assay: TASK1 (KCNK3) potassium channel inhibitors, SAR follow-up, CHO cells, FluxOR thallium flux (AID 652212); format: functional
# [38] = target: Disintegrin and metalloproteinase domain-containing protein 17 (Homo sapiens, UniProt P78536); assay: exosite inhibitors of ADAM17, dose response, biochemical (AID 743260)
# [39] = ADAM10 protease inhibitors, dose response, selectivity assay for ADAM17 exosite inhibitor project, biochemical, FRET peptide substrate, recombinant human ADAM10 (AID 743259);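 further: ADAM10 enzyme cleaving a FRET peptide substrate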
# [40] = TB: CFU replicating Measured in Microorganism System Using Imaging - 7108-05_Inhibitor_Dose_DryPowder_Activity_Set2.; format: functional
compound,measurement,setting,value
Cc1ccc(-c2ccc([C@@H]3[C@@H]4CN(C(=O)Nc5ccc(C(F)(F)F)cc5)C[C@H]3N4)cc2)cc1,AC50,[1],6.73 µM (active)
same,AC50,[2],11.3 µM (active)
same,AC50,[3],3.06 µM (active)
same,AC50,[4],17 µM (active)
same,AC50,[5],14 µM (active)
same,AC50,[6],2.33 µM (active)
same,AC50,[7],2.72 µM (active)
same,AC50,[8],22.8 µM (active)
Cc1cccc(C(=N)NOC(=O)c2ccco2)c1,EC50,[9],> 67.6 µM (inactive)
CN(C)C(=O)CSc1nc2cc(C(=O)c3ccccc3)ccc2[nH]1,AC50,[10],29.9 µM (active)
same,AC50,[11],35.9 µM (active)
same,EC50,[12],> 150 µM (not active)
same,EC50,[13],14.3 µM (inconclusive)
same,EC50,[14],> 150 µM (not active)
same,EC50,[15],> 150 µM (inconclusive)
CCn1cc(C(=O)O)c(=O)c2cnc(N3CCNCC3)nc21 [PIPEMIDIC ACID],IC50,[16],> 20 µM (inactive)
same,IC50,[17],> 20 µM (inactive)
same,IC50,[18],> 20 µM (inactive)
same,IC50,[19],> 20 µM (inactive)
same,IC50,[20],> 20 µM (inactive)
same,IC50,[21],> 20 µM (inactive)
same,IC50,[22],> 20 µM (inactive)
O=S(=O)(Nc1cc(SCc2ccccc2)c(O)c2ccccc12)c1ccc(Cl)cc1,CC50,[23],15 µM (active)
CCOc1ccc(-c2cc(C(=O)NCCCn3ccnc3)c3cc(Br)ccc3n2)cc1,IC50,[24],23.5 µM (inactive)
same,EC50,[25],> 120 µM (not active)
same,IC50,[26],> 59.6 µM (inactive)
same,EC50,[27],> 120 µM (not active)
same,CC50,[28],16.7 µM (active)
same,IC50,[29],4.38 µM (active)
same,IC50,[30],> 59.6 µM (inactive)
same,EC50,[31],> 120 µM (not active)
same,AC50,[32],9.7 µM (active)
COC(=O)c1cc(Br)cnc1N1CCC(NC2CCCC(O)C2)CC1 (stereo not given),IC50,[33],> 50 µM (inactive)
same,IC50,[34],16 µM (inactive)
CCOc1ccccc1NC(=O)c1cccc(NC(=O)C2CCCC2)c1,IC50,[35],1.84 µM (active)
same,IC50,[36],0.123 µM (active)
same,IC50,[37],0.054 µM (active)
COc1ccc(NC(=O)Nc2ccc3c(c2)C(=O)N([C@@H](C)CO)C[C@@H](C)[C@@H](CN(C)S(=O)(=O)c2cccs2)O3)cc1,IC50,[38],> 69.5 µM (inactive)
same,IC50,[39],> 7.72 µM (active)
Cn1c(-n2c(=O)nc3n(C)c4ccccc4n3c2=O)nc2ccccc21,AbsAC90,[40],268.91 µM
